From patent US6664268B1, “Crystal modification B of 8-cyano-1-cyclopropyl-7-(1S,6S-2, 8-diazabicyclo[4.3.0]nonan-8-yl)-6-fluoro-1,4-dihydro-4-oxo-3-quinolinecarboxylic acid” (Bayer Aktiengesellschaft, priority 1998, dated 2003)

What was measured:
[1] = Water absorption at 95% relative atmospheric humidity; format: physicochemical; settings: relative atmospheric humidity of 95% (saturated solution of Na2HPO4×12 H2O with sediment in water), within one day
From the text: At a relative atmospheric humidity of 95% (established using a saturated solution of Na2HPO4×12 H2O with sediment in water), the solid obtained according to this procedure absorbs approximately 17% by weight of water within one day.
At a relative atmospheric humidity of 95% (established using a saturated solution of Na2HPO4×12 H2O with sediment in water), the solid obtained according to this procedure absorbs approximately 1% by weight of water within one day.

[2] = Storage stability of the crystal modification; format: physicochemical
From the text: In addition, compared with amorphous CCDC, the modification B tends to absorb less water from the atmosphere. For these reasons, it is highly suitable for preparing tablets or other solid formulations. Owing to its stability, it gives these formulations the desired long-lasting storage stability. Using the crystal modification B, it is therefore possible to prepare, in a defined and targeted manner, stable solid preparations of CCDC.

water absorbed by the solid [1] | SMILES | stability of crystal modification on prolonged storage [2]
approximately 17 % by weight | N#Cc1c(N2C[C@@H]3CCCN[C@@H]3C2)c(F)cc2c(=O)c(C(=O)O)cn(C3CC3)c12 [Comparative Example, 8-cyano-1-cyclopropyl-7-(1 S,6S-2,8-diazabicyclo[4.3.0]nonan-8-yl)-6-fluoro-1,4-dihydro-4-oxo-3-quinolinecarboxylic acid, reference compound] | –
approximately 1 % by weight | N#Cc1c(N2C[C@@H]3CCCN[C@@H]3C2)c(F)cc2c(=O)c(C(=O)O)cn(C3CC3)c12 [Example 1, 8-cyano-1-cyclopropyl-7-(1 S,6S-2,8-diazabicyclo[4.3.0]nonan-8-yl)-6-fluoro-1,4-dihydro-4-oxo-3-quinolinecarboxylic acid] | does not change into another crystal modification or the amorphous form
